# Data from paper PMC10058894, “Bioactive C21 Steroidal Glycosides from Euphorbia kansui Promoted HepG2 Cell Apoptosis via the Degradation of ATP1A1 and Inhibited Macrophage Polarization under Co-Cultivation” (Molecules, 2023).
# Tests used:
# [1] = tested on: NO production of LPS-stimulated RAW264.7 cells; assay: Nitric oxide production in LPS-stimulated RAW264.7 cells (Griess); assay type: cell-based
# Description: RAW264.7 cells (8 × 10^4 cells/well) were incubated in 96T wells with DMEM for 24 h and then treated with compounds and LPS (1 μg/mL) for 24 h; this included the control group and LPS group. Then, the cell supernatant was collected for nitric oxide production assay. Next, 100 uL/well PBS was added to 96T wells, then 0.5% MTT (Sigma, Saint Louis, MO, USA) was added to 20 μL/well for 3.5 h. DMSO (150 μL/well) was added to dissolve the purple formazan. Cells were agitated for 15 min at room temperature, and the absorbance at 490 nm was recorded by SpetraMax M2 (Molecular Devices, San Jose, CA, USA). The NO inhibition rate (%) = (ODLPS group − ODcompound group)/(ODLPS group-ODcontrol group) × 100%. The IC50 value refers to the inhibitory of nitric oxide production of LPS-stimulated RAW264.7 cells. Then, 70 uL of each cell supernatant sample was added into a new 96T plate, and Griess A and Griess B were added separately. Then, the absorbance value at 540 nm was detected and then brought into the standard curve to assay the concentration of NO. The cell survival rate (%) = (ODcompound group − ODblank group)/(ODcontrol group − ODblank group) × 100%. The half concentration of the cell death (CC50) value refers to the concentration of compound 5 when 50% of RAW264.7 cells die. The iNOS inhibitor ([…], L-NMMA) was selected as the positive control. The levels of cytokines (IL-1β, IFN-γ, IL-10, TNF-α, and IL-6) in the cell supernatant were determined using an ELISA kit (Novus Biologicals, Shanghai, China, Lot: 834472, 770118, 772051, 486956, 602865). When the process was conducted according to the manufacturer’s instructions, the absorbance was read at 450 nm/570 nm in a SpectraMax 340PC microplate spectrophotometer (Molecular Devices, San Jose, CA, USA).
# ATP1A1 = ATP1A1 (Homo sapiens, UniProt P05023); assay: CETSA binding assay; design: we focused on the regulatory effect of 5 on ATP1A1 in HepG2 cells; endogenous in cells; host or cells: HepG2; conditions: 50 μmoL−1, western blot
# Description: Figure 4 Compound 5 promoted the endocytosis and degradation of ATP1A1. (A) HepG2 cells were treated with 12.5 μmol∙L^−1 or 25 μmol∙L^−1 5 for 48 h, and the lysosomal co-localization assay was performed with a confocal laser. (B) Cells exposed to 25 μmol∙L^−1 5 for 12 h or 24 h were detected by fluorescence staining. (C) 5 is depicted in red, and the chains of Na^+, K^+-ATPase α/β/γ are represented by light blue, cyan-blue, and magenta, respectively. The crystallography, atomic coordinates, and structure factors have been deposited in the Protein Data Bank, www.pdb.org (accessed on 1 February 2023) (PDB ID code 3KDP). (D) The CETSA binding assay of ATP1A1 and β-actin in the presence or absence of 5 (50 μmoL^−1) at different temperatures was detected by western blot. The temperature-dependent melting curves and the apparent aggregation temperature were calculated by nonlinear regression. Values represent the mean ± SEM (N = 3 replicates).
# [2] = tested on: ATP1A1-related AKT and ERK signaling pathways; assay: Western blot of AKT and ERK phosphorylation in HepG2 cells; assay type: cell-based; conditions: 5 at 25 μmol∙L−1, 0~60 min, digitonin 10 nmol∙L−1
# Description: An Na^+/K^+-ATPase inhibitor (digitonin), AKT inhibitor (MK 2206), and ERK inhibitor (FR 180204) were purchased from Biotech (Beijing, China). These agents were stored at −20 °C, and the cells were preincubated with the inhibitor for 4 h prior to treatment with the compounds. Digitonin, MK 2206, and FR 180204 were used at concentrations of 10, 40, and 200 nmol/L, respectively.
# Protein samples were prepared using a RIPA lysis buffer. The concentration of the protein was analyzed using a nucleic acid and protein microanalyzer (Molecular Devices, San Jose, CA, USA). SDS–PAGE was performed to separate the proteins, which were then electrotransferred onto a PVDF membrane. The membrane was incubated with antibodies at 4 °C overnight. Next, the membrane was washed and incubated with an HRP-conjugated secondary antibody (Beyotime, BeiJing, China). Finally, signals were detected by the ECL method (Beyotime, BeiJing, China) and analyzed using ImageJ software.
# [3] = tested on: HepG2 and RAW264.7 co-cultivation; assay: Cytokine levels by ELISA in co-cultivation; assay type: cell-based; conditions: 25 μmol∙L−1, 48 h
# Huh-7 cells = assay: Apoptosis of Huh-7 cells by flow cytometry (Annexin V/PI); assay type: cell-based
# Text: 2. The anti-proliferation of compound 5 on Huh-7 cells
# We tested another hepatoma cell line (Huh-7) to validate effect of compound 5. L02 (normal hepatocytes), HepG2 and Hub-7 cells were used to discuss the effect of 5. […]
# of 5 on Huh-7 cell was (24.49±[…]) μM (Table S1). The morphology and apoptosis of the cells by reversed microscope and flow cytometry, respectively.
# Second, the expression and phosphorylation of ATP1A1 were detected by Western blot analysis in L02, HepG2 and Huh-7 cells. Compared with L02 group, the expression of ATP1A1 was higher in HepG2 and Huh-7 cells, but there was no significant difference in the phosphorylation of ATP1A1 (Figure […]
# At last, the effect of 5 on the expression and the phosphorylation of ATP1A1 in Huh-7 cells was […]
# the phosphorylation of ATP1A1. The result was consistent with that observed in HepG2 cells (Figure […]
# Table S1 Cell viability of Huh-7 cell treated by compound 5
# Figure S2 Compound 5 inhibited the proliferation and the level of ATP1A1 protein in Huh-7 cells L5, low concentration of 5 (12.5 μmol-1 ); H5, high concentration of 5 (25 μmol-1). […] (B) Image of cell apoptosis in Huh-7 cells was detected by flow cytometry. The cells were double stained with Annexin V and PI. […] Data are expressed as the mean ± standard deviation (n=3). *p<0.05, **p<0.01, ***p<0.001 vs. the control group. […]
compound,measurement,setting,value
"C[C@H](O)[C@]1(O)CC[C@@]2(O)[C@]1(C)[C@H](OC(=O)/C=C/c1ccccc1)C[C@@H]1[C@@]3(C)CC[C@H](O[C@H]4C[C@H](O)[C@H](O)[C@@H](C)O4)CC3=CC[C@]12O [Compound 5, Cynsaccatol L]",inhibitory activity on NO production relative to the positive control drug (L-NMMA),[1]; LPS-stimulated RAW264.7 cells,1000 times
same,IC50,"[1]; Mus musculus, LPS (1 μg/mL)-stimulated RAW264.7 cells, 24 h, read-out: RAW264.7 IC50 (inhibition of nitric oxide production)",20 ± 20 nM
same,denaturation temperature of ATP1A1 (CETSA),ATP1A1,higher than that of the control group
same,phosphorylation of AKT and ERK and expression of ATP1A1,[2],all decreased
same,levels of TNF-α and IFN-γ,"[3]; vs C0, C1 and C2 groups",significantly upregulate
same,levels of IL-6 and IL-10,[3]; vs C0 group,decreased significantly
same,apoptosis of Huh-7 cells,Huh-7 cells,induce apoptosis of Huh-7 cells
